Data from patent US8664228B2, “3,5-diamino-6-chloro-pyrazine-2-carboxylic acid derivatives and their use as epithelial sodium channel blockers for the treatment of airway diseases” (Novartis AG, priority 2008, dated 2014).
Counter-ions that a name gives are not always drawn.

Target: T1, epithelial sodium channel (ENaC) (Homo sapiens, UniProt P37088+P51168+P51170)
T1 construct: host or cells: primary human bronchial epithelial cells (HBECs), air-liquid interface culture
T1 sequence (P37088 1-669): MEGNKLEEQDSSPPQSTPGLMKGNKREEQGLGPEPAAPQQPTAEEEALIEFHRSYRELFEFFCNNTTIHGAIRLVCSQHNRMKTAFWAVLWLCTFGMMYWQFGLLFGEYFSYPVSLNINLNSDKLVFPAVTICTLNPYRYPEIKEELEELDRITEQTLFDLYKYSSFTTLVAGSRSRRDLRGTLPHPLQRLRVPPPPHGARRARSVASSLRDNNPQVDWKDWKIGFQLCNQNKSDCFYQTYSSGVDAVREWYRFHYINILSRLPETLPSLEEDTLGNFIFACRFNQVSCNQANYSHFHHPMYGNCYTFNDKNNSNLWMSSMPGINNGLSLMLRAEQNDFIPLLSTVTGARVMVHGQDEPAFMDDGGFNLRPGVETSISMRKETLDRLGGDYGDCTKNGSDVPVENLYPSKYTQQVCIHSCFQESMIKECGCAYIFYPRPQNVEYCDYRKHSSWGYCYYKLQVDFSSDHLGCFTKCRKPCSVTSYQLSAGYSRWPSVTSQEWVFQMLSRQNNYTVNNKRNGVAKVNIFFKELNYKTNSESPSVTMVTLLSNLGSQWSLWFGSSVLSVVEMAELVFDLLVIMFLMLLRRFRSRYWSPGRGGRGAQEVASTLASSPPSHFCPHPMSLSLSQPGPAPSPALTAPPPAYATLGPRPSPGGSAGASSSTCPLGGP
T1 sequence (P51168 1-640): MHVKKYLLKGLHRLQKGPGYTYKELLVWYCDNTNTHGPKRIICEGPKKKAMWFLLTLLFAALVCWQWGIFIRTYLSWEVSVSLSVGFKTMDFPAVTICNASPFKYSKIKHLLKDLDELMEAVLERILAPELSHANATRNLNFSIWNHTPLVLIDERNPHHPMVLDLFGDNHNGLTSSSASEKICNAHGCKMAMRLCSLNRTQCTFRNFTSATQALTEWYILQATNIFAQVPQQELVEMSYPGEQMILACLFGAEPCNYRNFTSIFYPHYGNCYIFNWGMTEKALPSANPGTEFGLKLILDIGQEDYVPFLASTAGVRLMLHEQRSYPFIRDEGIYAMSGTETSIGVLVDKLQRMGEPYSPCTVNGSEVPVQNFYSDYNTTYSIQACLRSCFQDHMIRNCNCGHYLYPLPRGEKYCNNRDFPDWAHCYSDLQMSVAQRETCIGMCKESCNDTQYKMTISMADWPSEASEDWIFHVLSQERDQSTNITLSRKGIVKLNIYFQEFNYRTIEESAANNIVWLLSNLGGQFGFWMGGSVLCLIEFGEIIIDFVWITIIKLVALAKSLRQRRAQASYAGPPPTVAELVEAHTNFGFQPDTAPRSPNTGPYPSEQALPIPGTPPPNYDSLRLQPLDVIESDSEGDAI
T1 sequence (P51170 1-649): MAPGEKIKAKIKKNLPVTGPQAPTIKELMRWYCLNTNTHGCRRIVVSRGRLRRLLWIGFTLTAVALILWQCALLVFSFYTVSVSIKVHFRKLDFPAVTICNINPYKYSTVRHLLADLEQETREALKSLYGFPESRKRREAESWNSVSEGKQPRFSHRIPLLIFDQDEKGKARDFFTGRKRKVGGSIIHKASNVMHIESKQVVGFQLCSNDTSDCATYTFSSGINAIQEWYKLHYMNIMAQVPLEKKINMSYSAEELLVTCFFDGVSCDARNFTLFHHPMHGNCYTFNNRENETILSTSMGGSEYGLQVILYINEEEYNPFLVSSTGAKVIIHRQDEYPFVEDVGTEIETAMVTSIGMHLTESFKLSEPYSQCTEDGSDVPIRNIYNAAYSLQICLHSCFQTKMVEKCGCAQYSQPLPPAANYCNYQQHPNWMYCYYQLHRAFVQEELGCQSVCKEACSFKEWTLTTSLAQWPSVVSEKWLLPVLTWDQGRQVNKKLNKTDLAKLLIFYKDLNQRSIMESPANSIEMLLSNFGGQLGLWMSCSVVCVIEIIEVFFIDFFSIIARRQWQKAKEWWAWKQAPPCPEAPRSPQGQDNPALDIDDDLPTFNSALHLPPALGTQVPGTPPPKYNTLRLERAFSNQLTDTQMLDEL
Assay: Short circuit current (ISC) measurements in human bronchial epithelial cells, inhibition of amiloride-sensitive ISC
Type: cell-based
Settings: Human Bronchial Epithelial cells (HBECs) at air-liquid interface, Ussing chamber, apical addition
Protocol: Human Bronchial Epithelial cells (HBECs) (Cambrex) were cultured under air-liquid interface conditions to provide a well differentiated mucociliary phenotype.
HBECs were cultured using a modification of the method described by Gray and colleagues (Gray et al., 1996). Cells were seeded in plastic T-162 flasks and were grown in bronchial epithelial cell growth medium (BEGM; Cambrex) supplemented with bovine pituitary extract (52 μg/mL), hydrocortisone (0.5 μg/mL), human recombinant epidermal growth factor (0.5 ng/mL), epinephrine (0.5 μg/mL), transferrin (10 μg/mL), insulin (5 μg/mL), retinoic acid (0.1 μg/mL), triiodothyronine ([…]), gentamycin (50 μg/mL) and amphotericin B (50 ng/mL). Medium was changed every 48 hours until cells were 90% confluent. Cells were then passaged and seeded (8.25×10^5 cells/insert) on polycarbonate Snapwell inserts (Costar) in differentiation media containing 50% DMEM in BEGM with the same supplements as above but without triiodothyronine and a final retinoic acid concentration of 50 nM (all-trans retinoic acid). Cells were maintained submerged for the first 7 days in culture, after which time they were exposed to an apical air interface for the remainder of the culture period. At this time, media was changed to DMEM:F12 media containing 2% v/v Ultroser G for the remainder of culture. Amphotericin B was removed from all media 3 feeds prior to use in the Ussing Chambers. Cells were used between days 7 and 21 after establishment of the apical-air interface. At all stages of culture, cells were maintained at 37° C. in 5% CO2 in an air incubator.
Snapwell inserts were mounted in Vertical Diffusion Chambers (Costar) and were bathed with continuously gassed Ringer solution (5% CO2 in O2; pH 7.4) maintained at 37° C. containing (in mM): 120 NaCl, 25 NaHCO3, 3.3 KH2PO4, 0.8 K2HPO4, 1.2 CaCl2, 1.2 MgCl2, and 10 glucose. The solution osmolarity was between 280 and 300 mOsmol/kg H2O for all physiological salt solutions used. Cells were voltage clamped to 0 mV (model EVC4000; WPI). RT was measured by applying a 1- or 2-mV pulse at 30-s intervals and calculating RT by Ohm's law. Data were recorded using a PowerLab workstation (ADInstruments).
Test compounds were prepared as a 10 mM stock solution in DMSO (95%). Serial 3-fold dilutions were freshly prepared in an appropriate vehicle (distilled H2O or Ringers solution). The initial concentration was added to the apical chamber as a 1000× concentrate in 5 μL, resulting in a final 1× concentration the 5 mL volume of the Ussing chamber. Subsequent additions of compound were added in a 3.3 μL volume of the 1000× serially diluted stock solution. At the completion of the concentration-response experiment, amiloride (10 μM) was added into the apical chamber to enable the total amiloride-sensitive current to be measured. An amiloride control IC50 was established at the start of each experiment.
Results are expressed as the mean % inhibition of the amiloride-sensitive ISC. Concentration-response curves were plotted and IC50 values generated using GraphPad Prism 3.02. Cell inserts were typically run in duplicate and the IC50 calculated on the mean % inhibition data.

Compound | IC50 [µM]
CCC[C@H](N)CNC(=O)c1nc(Cl)c(N)nc1N [Example 4, 3,5-Diamino-6-chloro-pyrazine-2-carboxylic acid ((S)-2-amino-pentyl)-amide hydrochloride] | 0.29
Nc1nc(N)c(C(=O)NC[C@@H]2CCCN2)nc1Cl [Example 9, 3,5-Diamino-6-chloro-pyrazine-2-carboxylic acid ((S)-1-pyrrolidin-2-ylmethyl)-amide hydrochloride] | 2.74
Nc1nc(N)c(C(=O)NCC2(N)CCCC2)nc1Cl [Example 11, 3,5-Diamino-6-chloro-pyrazine-2-carboxylic acid (1-amino-cyclopentylmethyl)-amide hydrochloride] | 5.9
Nc1nc(N)c(C(=O)NC[C@@H](N)CCCCNC(=O)Cc2ccc(OCc3ccccc3)cc2)nc1Cl [Example 12, 3,5-Diamino-6-chloro-pyrazine-2-carboxylic acid {(S)-2-amino-6-[2-(4-benzyloxy-phenyl)-acetylamino]-hexyl}-amide trifluororoacetate] | 0.032
Nc1nc(N)c(C(=O)NC[C@@H](N)CCCCNC(=O)CCc2ccc(OCc3ccccc3)cc2)nc1Cl [Example 21, 3,5-Diamino-6-chloro-pyrazine-2-carboxylic acid {(S)-2-amino-6-[3-(4-benzyloxy-phenyl)-propionylamino]-hexyl}-amide hydrochloride] | 0.064
CCC[C@H](CNC(=O)c1nc(Cl)c(N)nc1N)NC(=N)N [Example 24, 3,5-Diamino-6-chloro-pyrazine-2-carboxylic acid ((R)-2-guanidino-pentyl)-amide trifluoroacetate] | 0.045
CCC[C@@H](CNC(=O)c1nc(Cl)c(N)nc1N)NCCCc1ccc(OC)cc1 [Example 26, 3,5-Diamino-6-chloro-pyrazine-2-carboxylic acid {(S)-2-[3-(4-methoxy-phenyl)-propylamino]-pentyl}-amide hydrochloride] | 0.06
N=C(N)N[C@@H](CCCCNC(=O)Cc1ccc(OCc2ccccc2)cc1)CNC(=O)c1nc(Cl)c(N)nc1N [Example 27, 3,5-Diamino-6-chloro-pyrazine-2-carboxylic acid {(S)-6-[2-(4-benzyloxy-phenyl)-acetylamino]-2-guanidino-hexyl}-amide trifluoroacetate] | 0.2
CCC[C@H](CNC(=O)c1nc(Cl)c(N)nc1N)N(CCCc1ccc(OC)cc1)C(=N)N [Example 29, 3,5-Diamino-6-chloro-pyrazine-2-carboxylic acid ((R)-2-{N-[3-(4-methoxy-phenyl)-propyl]-guanidino}-pentyl)-amide trifluoroacetate] | 0.005
CCC[C@@H](CNC(=O)c1nc(Cl)c(N)nc1N)NC(=N)NCCCc1ccc(OC)cc1 [Example 31, 3,5-Diamino-6-chloro-pyrazine-2-carboxylic acid ((S)-2-{N′-[3-(4-methoxy-phenyl)-propyl]-guanidino}-pentyl)-amide] | 0.049
CCC[C@@H](CNC(=O)c1nc(Cl)c(N)nc1N)NC(=N)NCc1ccc(OC)cc1 [Example 32, 3,5-Diamino-6-chloro-pyrazine-2-carboxylic acid {(S)-2-[N′-(4-methoxy-benzyl)-guanidino]-pentyl}-amide] | 0.006
